Test results: patent US20260021088A1, “METHODS OF USING ANTI-CD79b IMMUNOCONJUGATES TO TREAT FOLLICULAR LYMPHOMA” (Genentech, Inc., priority 2019, published 2026)

Legend:
[1] = tested on: patients with relapsed or refractory (R/R) FL; conditions: for Dose reductions: n = 56
Excerpt: This Phase Ib/II, open label, multicenter, non-randomized, dose-escalation study evaluated the safety, efficacy, and pharmacokinetics of induction treatment consisting of obinutuzumab (GA101 or G) in combination with polatuzumab vedotin (anti-CD79b(huMA79b.v28)-MC-vc-PAB-MMAE ADC (DCDS4501A) or Pola) and lenalidomide (Len) (G+Pola+Len) in patients with relapsed or refractory (R/R) FL, followed by post induction treatment with obinutuzumab in combination with lenalidomide. The study included an initial dose-escalation phase, followed by an expansion phase during which polatuzumab vedotin and lenalidomide were given at their recommended Phase II doses (RP2Ds).
The primary efficacy endpoint was based on IRC assessment of response. Patients were monitored closely for adverse events throughout the study and for at least 90 days after the last dose of study treatment. To characterize the pharmacokinetic (PK) properties of obinutuzumab, polatuzumab vedotin, and lenalidomide, blood samples were obtained at various timepoints before and during study treatment administration
Safety assessments consist of monitoring and recording adverse events, including serious adverse events and non-serious adverse events of special interest, performing protocol-specified safety laboratory assessments, measuring protocol-specified vital signs, and conducting other protocol-specified tests that were deemed critical to the safety evaluation of the study.
The safety analyses include all treated patients (i.e., patients who received any amount of study treatment). Safety is assessed through summaries of adverse events and changes from baseline in laboratory test results, shift-tables of ECGs findings, and vital signs. All adverse events occurring on or after first study treatment are summarized by mapped term, appropriate thesaurus levels, and NCI CTCAE, Version 4.0 grade. All serious adverse events, adverse events of special interest, and selected adverse events are summarized and listed. Deaths reported during the treatment period and during post-treatment follow-up are listed and summarized.
Adverse Events: NCI CTCAE, Version 4.0 is used for assessing adverse event severity. All adverse events are reported until 90 days after the last dose of study treatment. After this period, the investigator reports any serious adverse events that are believed to be related to prior study treatment and events of second malignancies for patients who received obinutuzumab. Grade 3 and 4 infections (both related and unrelated) are reported until up to 2 years after the last dose of obinutuzumab.
Infusion-Related Reactions: Adverse events that occur during or within 24 hours after the end of study treatment infusion and are judged to be related to infusion of any of the study treatment components are captured as a diagnosis (e.g., “infusion-related reaction”). If a patient experiences both a local and systemic reaction to the same dose of study treatment, each reaction is recorded separately, with signs and symptoms also recorded separately.

[2] = tested on: patients with relapsed or refractory (R/R) FL; experiment: Phase Ib/II study, dose-escalation phase: dose-limiting toxicities and recommended Phase II dose
Excerpt: The purpose of the FL dose-escalation phase was to identify the RP2D for polatuzumab vedotin and the RP2D for lenalidomide when combined with a fixed dose of obinutuzumab as induction treatment.
Patients were closely monitored for adverse events during the dose limiting toxicity (DLT) assessment window, defined as the first treatment cycle (from Day 1 of Cycle 1 to Day 1 of Cycle 2). Patients experiencing a DLT during the DLT assessment period continued receiving study treatment once the event resolved if determined it was safe to continue treatment and there was potential for clinical benefit. Patients who discontinued from the study prior to completing the DLT assessment window for reasons other than a DLT were considered non-evaluable for dose-escalation decisions and RP2D assessments and were replaced by an additional patient at that same dose level. Patients who missed one or more doses of polatuzumab vedotin or obinutuzumab or five consecutive daily doses of lenalidomide during the DLT assessment window for reasons other than a DLT were also replaced and considered non-evaluable for dose-escalation decisions. Patients who received supportive care during the DLT assessment window that could confound the evaluation of DLTs were replaced at the discretion of the Medical Monitor.
A standard 3+3 dose-escalation schema was used. […]

[3] = Example 1 interim, n = 52, given as G+Pola+Len

| Patients who required lenalidomide dose reductions ([1]; Example 2, during maintenance) | Molecule | Dose reductions ([1]; Example 2, given as G+Pola+Len) | Recommended Phase II dose (RP2D) ([2]; combined with lenalidomide and fixed dose of 1000 mg obinutuzumab) [mg/kg] | AEs leading to lenalidomide dose interruptions [1, 3] [%] | AEs leading to lenalidomide dose reduction [1, 3] [%] | Recommended Phase II dose (RP2D) ([2]; combined with polatuzumab vedotin and fixed dose of 1000 mg obinutuzumab) [mg] |
| --- | --- | --- | --- | --- | --- | --- |
| – | obinutuzumab: anti-CD20 antibody; afucosylated glyco-engineered humanized B-Ly1 antibody | no dose reductions | – | – | – | – |
| – | polatuzumab vedotin | no dose reductions | 1.4 | – | – | – |
| Two | Nc1cccc2c1CN(C1CCC(=O)NC1=O)C2=O (stereo not shown) [lenalidomide, 3-(4-amino-1-oxo-2,3-dihydro-1H-isoindol-2-yl)piperidine-2,6-dione] | – | – | 52 | 31 | 20 |
